Data reported in patent US8394929B2, “Nogo receptor-mediated blockade of axonal growth” (Yale University, priority 2000, dated 2013).

T1: NgR carboxy terminal deletion mutant (NgRΔCT) (Mus musculus, UniProt Q99PI8)
T1 construct: expressed in transfected cells; host or cells: chick E7 retinal ganglion cell explants infected with recombinant HSV
T1 sequence (Q99PI8 with tags, fused parts or gaps): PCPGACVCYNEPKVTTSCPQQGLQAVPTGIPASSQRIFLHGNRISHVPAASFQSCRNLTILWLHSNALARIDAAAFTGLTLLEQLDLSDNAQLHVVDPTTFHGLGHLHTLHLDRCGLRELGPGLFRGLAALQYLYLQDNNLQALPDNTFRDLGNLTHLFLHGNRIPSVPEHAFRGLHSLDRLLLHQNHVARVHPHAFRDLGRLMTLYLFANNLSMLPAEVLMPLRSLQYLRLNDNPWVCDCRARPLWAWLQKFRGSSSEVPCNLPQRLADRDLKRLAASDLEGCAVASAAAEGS


Assays:
Format in all cases: cell-based
[1] = test system: CNS myelin induced growth cone collapse; experiment: Blockade of CNS myelin induced growth cone collapse in chick DRG cultures
Method: In the growth cone collapse assay, the response to Nogo was measured in the presence of various potential antagonistic peptides. […] This blockade supports the hypothesis that Nogo is a primary inhibitory component of CNS myelin.
To determine the antagonistic activity of Peptide 140 against CNS myelin, the above synthetic peptide was added approximately 10 min before application of CNS myelin. 30 min later, cultures were fixed and growth cone collapse was assessed following staining with rhodamine-phalloidin. For neurite outgrowth assays, plastic chamber slide were coated with 100 μg ml^−1 poly-L-lysine, washed, and dried. 3 μl drops of PBS containing CNS myelin were spotted and dried. Slides were then rinsed and coated with 10 μg ml fs24^−1 laminin before addition of dissociated E12 chick DRGs. Peptide 140, or the scrambled version of Peptide 140, was added at the time of cell plating. Cultures were grown for 5-7 h after which neurite outgrowth was assessed.

[2] = test system: chick E7 retinal ganglion cells; experiment: Growth cone collapse in uninfected chick E7 retinal ganglion cells; details: neurons lacking the Nogo-66 receptor
Source text: Both dorsal root ganglion and retinal neurons from E7 chick embryos were examined. The Nogo responses in the dorsal root ganglion neurons from this developmental stage are weak but slight responses can be detected in some cultures (data not shown).
For some receptor systems, such soluble receptor ligand complexes can block signaling by creating an ineffective interaction. For example, the soluble ectodomain of Trk serves to block neurotrophin signaling and has been extensively used for this purpose (Shelton et al., (1995) J. Neurosci. 15, 477-491). Alternatively, the Nogo-66/NgR-ecto soluble complex may bind to and stimulate the presumed second transmembrane NgR subunit. There is precedence for this type of effect from studies of GDNF family receptors (Cacalano et al., (1998) Neuron 21, 53-62).

[3] = molecular target: T1, NgR carboxy terminal deletion mutant (NgRΔCT); experiment: Growth cone collapse in E7 retinal ganglion cells infected with NgRΔCT
Method: Because the mouse NgRCT domain was determined to be dispensable for hNogo-A (1055-1120) binding, the ability of NgRΔCT to mediate Nogo-dependent inhibition was examined. HSVNgR constructs transfected into HEK293T cells mediated the expression of mNgR proteins of the predicted molecular weight, as determined by SDS-PAGE and anti-Myc and anti-NgR immunoblotting (FIG. 19A). Day E7 chick retinal ganglion cells (RGCs) were grown for 12 hr, then further incubated for 24 hr with HSVNgR preparations. Explants were fixed with 4% paraformaldehyde with 0.1 M PO4 and 20% sucrose and stained with phalloidin or with anti-myc antibodies. HSVNgR protein expression was detected in axons of infected (RGC) cultures (FIG. 19B).
Growth cone collapse in response to GST-hNogo-A (1055-1120) was investigated in infected RGC cultures. Retinal explants infected with recombinant viral preparations of PlexinA1 (PlexA1), wild-type NgR (wtNgR), NgRL1 chimeric receptor in which the GPI domain has been replaced by the transmembrane region and cytoplasmic tail from the mouse adhesion protein L1 (NgRL1), or NgR carboxy terminal deletion mutant (NgRΔCT) for 12 hr. Following infection, the cells were treated for 30 min with 0, 50, 250, or 500 nM GST-hNogo-A (1055-1120) (GrandPre et al., Nature 403: 439-444, 2000), fixed with 4% paraformaldehyde with 0.1 M PO4 and 20% sucrose, and stained with phalloidin. […]

| growth cone collapse response (in words) [3] | Molecule | blockade of CNS myelin induced growth cone collapse (in words) ([1]; high doses / higher concentrations of CNS myelin) | blockade of CNS myelin induced growth cone collapse (in words) ([1]; low dose / lowest concentrations of CNS myelin) | growth cone collapse (in words) [2] |
| --- | --- | --- | --- | --- |
| – | Peptide 140: synthetic peptide of amino acids #1055-1094 of the human NogoA protein, acetylated and amidated at the termini (Ac-RIYKGVIQAIQKSDEGHPFRAYLESEVAISEELVQKYSNS-NH2; UniProt Q9NQC3 1055-1094, looked up, fragment) | had no effect on inhibitory activity | reduces myelin induced growth cone collapse to control levels | – |
| insensitive | GST-Nogo: GST fusion protein of the 66 amino acid lumenal-extracellular fragment of Nogo-A, expressed in E. coli (protein, also: GST fusion protein, GST fusion protein of the 66 amino acid lumenal-extracellular fragment of Nogo-A, expressed in E. coli) RIYKGVIQAIQKSDEGHPFRAYLESEVAISEELVQKYSNSALGHVNCTIKELRRLFLVDDLVDSLK | – | – | uniformly insensitive |
